Experimental data from patent publication US20050107394A1, “Novel use of selective pde5 inhibitors” (priority 2001, published 2005).

Test system: rabbits
Assay: Lung damage after inhaled bleomycin (characterisation of the model)
Format: in vivo, rabbit
Source text: Healthy rabbits of both sexes were pretreated orally with a gyrase inhibitor (Baytril®) for one week. Ten animals pretreated in this way were not treated with bleomyin and served as control, and, on the day of exposure, the others were anaesthetized with a Ketanest®/Rompun® mixture, intubated intratracheally and ventilated mechanically. An ultrasonic nebulizer (MMAD 2.5 μm) was used to administer by inhalation exactly 1.8 U/kg of bodyweight of bleomycin under volume-controlled ventilation. After 4, 8, 16, 24, 32 and 64 days (in each case n≧5) post exposure, the animals were again anaesthetized, provided with an arterial access (right carotid artery) and underwent bodyweight-adapted ventilation via a tracheostomy in a volume-controlled method. The arterial pO2 and pCO2, and the static compliance of the lung were measured (by recording the intrathoracic pressure and with slow inflation/deflation manoeuvres). Subsequently, the lungs of these animals were dissected and perfused with a Krebs Hensefeit buffer. Under these conditions, the capillary filtraton coefficient (cfc) was then found from the weight gain of the organ after increasing the pulmonary venous pressure by 7.5 mmHg, and the peak ventilation pressure was found. After completion of these measurements, the left main bronchus was ligated in the end-inspiratory position and a bronchoalveolar lavage (BAL) was performed on the right lung. Subsequently, the large vessels and airways of the right lung were dissected off and the organ was homogenized. The left lung was perfusion-fixed with 4% formalin solution while maintaining a pressure gradient of 25 cm H2O and was then stored in 4% formalin until embedded. Firstly, the cells were removed from the BAL, counted and differentiated via a Papenheim stain. The cell-free BAL supernatant was then aliquoted and submitted to further analysis of the surfactant and coagulation properties and a determination of the matrix metallo proteinases (MMPs) and their inhibitors (TIMPs) and of soluble collagen. Bronchoalveolar deposition of 1.8 U/kg of bodyweight of bleomycin led initially to development of an ARDS-like event, with a massive restriction of gas exchange (paO2/FiO2 of >500 mmHg in the controls reduced to ˜110 mmHg on day 4), ground-glass opacities over all sections of the lung in the HRCT and an increase of about 5-fold in the capillary filtration coefficient (cfc). In the later phase of bleomycin-induced lung damage there was then development of pronounced fibrosis which could be confirmed on the basis of the increase in soluble collagen in the BAL and the hydroxyproline in the tissue, on the basis of the histological specimens and of the HRCT findings. […] Consistent with this, a pronounced increase in the extracellular matrix and an alveolar and also interstitial ingress of fibroblasts was observable in the histological sections. Besides the homogeneously distributed zones of fibrosis there were also thin hyperdistended sections of lung with a honeycomb appearance.

bleomycin
concentration of soluble collagen in the BAL (after 64 days): 7000 ± 2200 ng/mL | paO2/FiO2 (day 4 after 1.8 U/kg bleomycin by inhalation, controls >500 mmHg): ~110 mmHg | concentration of soluble collagen in the BAL (maximum) (day 16 after bleomycin, controls 1.1±0.4): 38300 ± 12500 ng/mL | capillary filtration coefficient (cfc), increase (early phase after 1.8 U/kg bleomycin): about 5 fold | hydroxyproline content of the tissue (from day 16 onwards): approximately doubled
